In PubChem BioAssay AID493138 (Sanford-Burnham Center for Chemical Genomics, 2011):
Activity calls are given as the source filed them. The rule behind the calls is not given here.

What follows are compounds tested against Alkaline phosphatase, placental type (Homo sapiens) (UniProt P05187) (assay: inhibitors of placental alkaline phosphatase – biochemical, human PLAP isozyme, selectivity assay for human IAP inhibitor project, SAR follow-up (AID 493138)). Details: purified placental alkaline phosphatase, enzyme activity.

Row | IC50 | SMILES
1 | > 100 µM (inactive) | O=S(=O)(Nc1ncccn1)c1ccc(NC(=S)NCCC(c2ccccc2)c2ccccc2)cc1
2 | > 100 µM (inactive) | CC(C)(C)c1ccc(/C=N/N=C2\NC(=O)C(CC(=O)O)S2)cc1 (stereo unspecified)
3 | > 100 µM (inactive) | Cc1ccc(Nc2nc(-c3ccc(O)c(C(N)=O)c3)cs2)cc1
4 | > 100 µM (inactive) | Cc1cccc(NC(=S)NN=Cc2ccc3c(c2)OCO3)c1
5 | > 100 µM (inactive) | COc1cc(C=NNC(=S)Nc2cccc(C(=O)O)c2)ccc1O
6 | > 100 µM (inactive) | Cc1cccc(Nc2nc(-c3ccc(O)c(C(N)=O)c3)cs2)c1
7 | > 100 µM (inactive) | COc1ccc(/C=N/N=C2\NC(=O)C(CC(=O)O)S2)c(OC)c1 (stereo unspecified)
8 | > 100 µM (inactive) | CC(=NNC(=S)Nc1ccccc1)c1ccc2c(c1)OCO2
9 | > 100 µM (inactive) | COc1ccc(C(=O)NNC(=S)NC2CCCCC2)cc1OC
10 | > 100 µM (inactive) | Cc1cc(=O)oc2cc(NC(=S)NCCC(c3ccccc3)c3ccccc3)ccc12
11 | > 100 µM (inactive) | CCc1ccccc1Nc1nc(-c2ccc(O)c(O)c2)cs1
12 | > 100 µM (inactive) | COC(=O)/C=C1\SC(N=Nc2c(O)[nH]c3ccccc23)=NC1=O
13 | > 100 µM (inactive) | COC(=O)C/C=N/N=C1\NC(=O)/C(=C/C(=O)O)S1
14 | > 100 µM (inactive) | FC(F)(F)c1cccc(NC(=S)NCCC(c2ccccc2)c2ccccc2)c1
15 | > 100 µM (inactive) | COc1ccc(C=NNC(=S)Nc2ccccc2[N+](=O)[O-])cc1O
16 | > 100 µM (inactive) | COc1cc([N+](=O)[O-])ccc1NC(=S)NCCC(c1ccccc1)c1ccccc1
17 | > 100 µM (inactive) | Cc1ccc(Nc2nc(-c3ccc(O)cc3O)cs2)cc1
18 | > 100 µM (inactive) | O=S(=O)(c1ccc(NC(=S)N/N=C/c2ccc(O)c(O)c2)cc1)N1CCOCC1
19 | > 100 µM (inactive) | COc1cc(C=NN=C2SC(CC(=O)O)C(=O)N2c2ccc(O)cc2)ccc1O (stereo unspecified)
20 | > 100 µM (inactive) | O=[N+]([O-])c1ccccc1NC(=S)N/N=C/c1ccc(O)c(O)c1O
21 | > 100 µM (inactive) | Cc1ccc(-c2ccc(/C=N/N=C3\NC(=O)C(CC(=O)O)S3)o2)c([N+](=O)[O-])c1 (stereo unspecified)
22 | > 100 µM (inactive) | COc1cc(C(=O)NNC(=S)Nc2ccc(S(N)(=O)=O)cc2)cc(OC)c1OC
23 | > 100 µM (inactive) | Cc1cccc(Nc2nc(-c3ccc(O)c(O)c3)cs2)c1
24 | > 100 µM (inactive) | Oc1ccc(Nc2nc(-c3ccc(O)c(O)c3)cs2)cc1
25 | > 100 µM (inactive) | COC(=O)/C=C1/S/C(=N/NC(=O)c2ccc(OC)cc2)NC1=O
26 | > 100 µM (inactive) | Cc1cccc(NC(=S)NNC(=O)c2ccc3c(c2)OCO3)c1

Row | IC50 | SMILES
27 | > 100 µM (inactive) | O=S(=O)(c1ccc(NC(=S)N/N=C/c2ccc(O)c(O)c2O)cc1)N1CCOCC1
28 | > 100 µM (inactive) | S=C(NCCC(c1ccccc1)c1ccccc1)Nc1ccc(Cl)cc1Cl
29 | > 100 µM (inactive) | Cc1ccc2sc(NNC(=O)c3ccc4c(c3)OCCO4)nc2c1C
30 | > 100 µM (inactive) | CCOc1ccc(Nc2nc(-c3ccc(O)c(O)c3)cs2)cc1
31 | > 100 µM (inactive) | CCN(CC)S(=O)(=O)c1ccc(-c2csc(=Nc3cccc4ccccc34)n2C)cc1
32 | > 100 µM (inactive) | COC(=O)/C=C1/S/C(=N/NC(=O)c2ccccc2C)NC1=O
33 | 8.24 µM | O=[N+]([O-])c1ccccc1NC(=S)NN=Cc1ccc(O)c(O)c1
34 | > 100 µM (inactive) | COC(=O)/C=C1/S/C(=N/NC(=O)c2ccccc2OC)NC1=O
35 | > 100 µM (inactive) | COc1ccc(C=NN=C2SC(CC(=O)O)C(=O)N2c2ccc(O)cc2)cc1 (stereo unspecified)
36 | > 100 µM (inactive) | COC(=O)/C=C1\S/C(=N/N=C/c2ccc(Cl)cc2)NC1=O
37 | > 100 µM (inactive) | Cc1cc(C)cc(Nc2nc(-c3ccc(O)cc3O)cs2)c1
38 | > 100 µM (inactive) | O=[N+]([O-])c1ccc(NC(=S)NCCC(c2ccccc2)c2ccccc2)cc1
39 | > 100 µM (inactive) | COC(=O)/C=C1/S/C(=N/N=Cc2ccc(N(C)C)cc2)NC1=O
40 | > 100 µM (inactive) | CCOc1cc(C=NNC(=S)NC2CCCCC2)ccc1O
41 | > 100 µM (inactive) | CN(C)S(=O)(=O)c1cccc(NC(=S)NN=Cc2ccc(O)c(O)c2O)c1
42 | > 100 µM (inactive) | CCOc1cc(/C=N/N=C2\NC(=O)C(CC(=O)O)S2)ccc1O (stereo unspecified)
43 | 33.8 µM | NS(=O)(=O)c1ccc(Nc2nc(-c3ccc(O)c(O)c3)cs2)cc1
44 | > 100 µM (inactive) | Cc1ccc(Nc2nc(-c3ccc(O)c(O)c3)cs2)cc1
45 | > 100 µM (inactive) | Cc1ccc(Nc2nc(-c3ccc(O)cc3O)cs2)cc1C
46 | > 100 µM (inactive) | COc1cc(/C=N/N=C2/SCC(=O)N2c2ccc(O)cc2)ccc1O
47 | > 100 µM (inactive) | Oc1ccc(-c2csc(Nc3cccc4ccccc34)n2)cc1O
48 | > 100 µM (inactive) | Cc1ccc(Nc2nc(-c3ccc(O)c(O)c3)cs2)cc1F
49 | > 100 µM (inactive) | Oc1ccc(-c2csc(Nc3ccccc3)n2)c(O)c1
50 | > 100 µM (inactive) | COC(=O)/C=C1/S/C(=N/NC(=O)c2ccccc2)NC1=O
51 | > 100 µM (inactive) | Cc1ccc(Nc2nc(-c3ccc(O)cc3O)cs2)cc1F
52 | > 100 µM (inactive) | COc1ccc(-c2csc(Nc3cccc4ccccc34)n2)cc1F

Row | IC50 | SMILES
53 | > 100 µM (inactive) | COc1cc([N+](=O)[O-])ccc1NC(=S)NNC(=O)c1ccc2c(c1)OCO2
54 | > 100 µM (inactive) | COC(=O)/C=C1\S/C(=N/N=C/CC(=O)OC)NC1=O
55 | > 100 µM (inactive) | Cc1c(Cl)cccc1Nc1nc(-c2ccc(O)c(O)c2)cs1
56 | > 100 µM (inactive) | N#CCCn1cc(/C=N/N=C2/NC(=O)C(CC(=O)O)S2)c(-c2ccc(F)cc2)n1 (stereo unspecified)
57 | > 100 µM (inactive) | COc1cc(/C=N/N=C2\NC(=O)C(CC(=O)O)S2)cc(OC)c1OC (stereo unspecified)
58 | > 100 µM (inactive) | COc1ccc(-c2csc(Nc3cccc4ccccc34)n2)cc1
59 | > 100 µM (inactive) | Cn1c(=S)n(N=Cc2ccc3c(c2)OCO3)c2ccccc21
60 | > 100 µM (inactive) | COc1cc(C=NNC(=S)Nc2cccc(S(=O)(=O)N(C)C)c2)ccc1O
61 | > 100 µM (inactive) | Cc1cccc(C)c1NC(=S)N/N=C/c1ccc(O)c(O)c1O
62 | > 100 µM (inactive) | COC(=O)/C=C1/S/C(=N/NC(=O)c2ccc(Cl)cc2Cl)NC1=O
63 | > 100 µM (inactive) | CCOc1cc(C=N/N=C2/NC(=O)C(CC(=O)O)S2)ccc1OCc1ccccc1Cl (stereo unspecified)
64 | > 100 µM (inactive) | COc1ccc(Cl)cc1Nc1nc(-c2ccc(O)c(O)c2)cs1
65 | > 100 µM (inactive) | Cc1cccc2sc(NNC(=O)c3ccc4c(c3)OCCO4)nc12
66 | > 100 µM (inactive) | Oc1ccc(-c2csc(Nc3ccc(F)cc3)n2)cc1O
67 | > 100 µM (inactive) | COc1ccc(C=Nn2c(=S)n(C)c3ccccc32)cc1OC
68 | > 100 µM (inactive) | COc1ccc(/C=N/N=C2/NC(=O)C(CC(=O)O)S2)cc1OC (stereo unspecified)
69 | > 100 µM (inactive) | Cc1ccc(Cl)cc1Nc1nc(-c2ccc(O)c(O)c2)cs1
70 | > 100 µM (inactive) | Cc1ccc2nc(NNC(=O)c3ccc4c(c3)OCCO4)sc2c1
71 | > 100 µM (inactive) | Cc1ccc(C)c(Nc2nc(-c3ccc(O)cc3O)cs2)c1
72 | > 100 µM (inactive) | O=C(O)CC1S/C(=N/N=C/c2ccco2)NC1=O (stereo unspecified)
73 | > 100 µM (inactive) | NS(=O)(=O)c1ccc(Nc2nc(-c3ccc(O)cc3O)cs2)cc1
74 | > 100 µM (inactive) | COc1ccc(NC(=S)NCCC(c2ccccc2)c2ccccc2)cc1
75 | > 100 µM (inactive) | COc1cc(C=NNC(=S)Nc2cccc(S(=O)(=O)N(C)C)c2)cc(OC)c1O
76 | > 100 µM (inactive) | COc1cccc(Nc2nc(-c3ccc(O)cc3)cs2)c1
